Measurements reported in ChEMBL document CHEMBL1221361, “Substituted biaryl oxazoles, imidazoles, and thiazoles as sodium channel blockers” (Bioorg Med Chem Lett, 2010).
“And” between values parts separate entries of the source, which are not always exact repeats. Equal values may be shown once. Values belong to the compound of their own block, whether it stands above or below them.

Tests used:
[1] = biological target: T1, Sodium channel protein type 9 subunit alpha (Homo sapiens, UniProt Q15858); assay: Blockade of human Nav1.7 by voltage ion probe reader based FRET assay
Target sequence in this assay (Q15858 whole entry): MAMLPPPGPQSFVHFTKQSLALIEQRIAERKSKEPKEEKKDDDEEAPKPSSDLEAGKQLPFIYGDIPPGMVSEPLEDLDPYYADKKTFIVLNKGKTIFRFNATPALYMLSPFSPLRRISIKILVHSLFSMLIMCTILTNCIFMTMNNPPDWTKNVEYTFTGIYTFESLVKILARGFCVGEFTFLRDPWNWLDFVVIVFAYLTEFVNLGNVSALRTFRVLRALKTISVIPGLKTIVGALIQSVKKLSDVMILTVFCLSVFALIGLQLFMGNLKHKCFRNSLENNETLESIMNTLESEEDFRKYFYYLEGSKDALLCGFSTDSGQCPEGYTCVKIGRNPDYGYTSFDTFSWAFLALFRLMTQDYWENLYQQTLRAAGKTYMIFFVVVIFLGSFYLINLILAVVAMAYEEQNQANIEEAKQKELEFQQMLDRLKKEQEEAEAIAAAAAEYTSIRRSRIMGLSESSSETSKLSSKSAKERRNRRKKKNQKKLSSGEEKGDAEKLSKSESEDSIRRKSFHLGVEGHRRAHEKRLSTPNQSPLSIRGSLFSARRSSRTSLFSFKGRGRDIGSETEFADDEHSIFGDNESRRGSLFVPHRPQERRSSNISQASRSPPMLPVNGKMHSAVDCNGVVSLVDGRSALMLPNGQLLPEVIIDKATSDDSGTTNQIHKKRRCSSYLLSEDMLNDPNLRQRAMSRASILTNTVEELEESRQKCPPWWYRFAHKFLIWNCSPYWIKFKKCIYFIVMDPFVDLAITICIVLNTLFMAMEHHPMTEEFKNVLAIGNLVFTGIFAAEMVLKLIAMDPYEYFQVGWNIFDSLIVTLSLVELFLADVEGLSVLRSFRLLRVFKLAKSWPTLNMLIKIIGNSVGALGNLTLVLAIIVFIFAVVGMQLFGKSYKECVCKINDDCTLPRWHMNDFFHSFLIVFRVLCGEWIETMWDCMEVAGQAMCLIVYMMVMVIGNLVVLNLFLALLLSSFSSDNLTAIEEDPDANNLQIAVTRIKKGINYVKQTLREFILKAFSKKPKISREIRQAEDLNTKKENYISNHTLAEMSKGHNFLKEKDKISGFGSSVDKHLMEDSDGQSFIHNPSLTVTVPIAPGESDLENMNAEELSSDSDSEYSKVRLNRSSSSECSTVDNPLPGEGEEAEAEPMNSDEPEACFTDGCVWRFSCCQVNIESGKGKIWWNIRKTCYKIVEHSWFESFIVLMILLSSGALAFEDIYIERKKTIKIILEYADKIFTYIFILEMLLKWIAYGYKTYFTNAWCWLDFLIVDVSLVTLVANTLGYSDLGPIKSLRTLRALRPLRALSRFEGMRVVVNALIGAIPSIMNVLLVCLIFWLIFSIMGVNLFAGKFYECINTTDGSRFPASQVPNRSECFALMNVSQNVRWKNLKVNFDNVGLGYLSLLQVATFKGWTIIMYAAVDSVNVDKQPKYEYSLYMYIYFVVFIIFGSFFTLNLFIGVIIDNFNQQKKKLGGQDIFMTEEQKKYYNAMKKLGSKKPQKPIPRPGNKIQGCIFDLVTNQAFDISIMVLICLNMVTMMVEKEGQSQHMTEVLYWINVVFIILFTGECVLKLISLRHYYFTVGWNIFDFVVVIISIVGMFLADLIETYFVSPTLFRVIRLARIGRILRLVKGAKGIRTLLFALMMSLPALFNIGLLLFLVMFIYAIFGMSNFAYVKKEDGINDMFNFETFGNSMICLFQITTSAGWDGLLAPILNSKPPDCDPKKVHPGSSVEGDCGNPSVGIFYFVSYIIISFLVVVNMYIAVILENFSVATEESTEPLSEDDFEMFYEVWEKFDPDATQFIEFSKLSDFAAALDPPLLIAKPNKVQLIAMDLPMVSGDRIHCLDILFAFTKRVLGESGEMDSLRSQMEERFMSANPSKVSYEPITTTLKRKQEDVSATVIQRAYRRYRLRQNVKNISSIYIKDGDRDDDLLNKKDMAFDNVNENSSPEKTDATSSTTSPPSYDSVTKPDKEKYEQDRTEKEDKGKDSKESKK

[2] = Oral bioavailability in rat at 1 to 3 mg/kg; format: ADME, organism-based; conditions: in vivo
Cytochrome P450 3A4 = Cytochrome P450 3A4 (Homo sapiens, UniProt P08684); assay: Inhibition of CYP3A4; format: ADME
Cytochrome P450 3A4, sequence (P08684 whole entry): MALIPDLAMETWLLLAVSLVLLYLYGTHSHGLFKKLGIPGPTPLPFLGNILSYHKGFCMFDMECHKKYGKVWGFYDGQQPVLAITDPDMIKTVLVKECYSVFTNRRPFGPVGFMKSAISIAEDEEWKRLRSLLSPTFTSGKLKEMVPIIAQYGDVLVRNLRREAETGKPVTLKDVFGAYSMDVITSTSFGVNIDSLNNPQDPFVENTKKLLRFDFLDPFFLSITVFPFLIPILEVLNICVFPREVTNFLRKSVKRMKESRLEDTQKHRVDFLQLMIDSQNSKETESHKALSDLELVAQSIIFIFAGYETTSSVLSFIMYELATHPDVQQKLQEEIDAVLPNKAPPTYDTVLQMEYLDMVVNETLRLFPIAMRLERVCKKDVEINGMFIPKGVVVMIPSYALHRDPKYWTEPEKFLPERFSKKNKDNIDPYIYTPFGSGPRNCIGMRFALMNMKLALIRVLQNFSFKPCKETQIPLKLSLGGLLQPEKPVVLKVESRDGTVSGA

Cytochrome P450 2C9 = Cytochrome P450 2C9 (Homo sapiens, UniProt P11712); assay: Inhibition of CYP2C9; format: ADME
Cytochrome P450 2C9, sequence (P11712 whole entry): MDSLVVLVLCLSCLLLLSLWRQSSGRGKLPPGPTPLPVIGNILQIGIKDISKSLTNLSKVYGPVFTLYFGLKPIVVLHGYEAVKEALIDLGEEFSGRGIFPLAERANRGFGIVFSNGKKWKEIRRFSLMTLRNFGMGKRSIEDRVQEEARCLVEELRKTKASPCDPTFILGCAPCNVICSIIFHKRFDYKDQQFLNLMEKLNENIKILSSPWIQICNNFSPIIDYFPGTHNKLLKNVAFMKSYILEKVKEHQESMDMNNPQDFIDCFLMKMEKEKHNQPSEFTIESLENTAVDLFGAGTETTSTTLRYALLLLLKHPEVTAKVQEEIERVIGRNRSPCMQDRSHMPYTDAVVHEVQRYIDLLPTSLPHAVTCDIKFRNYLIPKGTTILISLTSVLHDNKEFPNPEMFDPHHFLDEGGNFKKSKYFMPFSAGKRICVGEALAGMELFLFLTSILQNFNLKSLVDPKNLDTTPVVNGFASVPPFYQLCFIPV

hERG (KCNH2) = hERG (KCNH2) (Homo sapiens, UniProt Q12809); assay: Displacement of radiolabeled MK-0499 from human ERG at 1 uM; conditions: probe radiolabeled MK-0499
hERG (KCNH2), sequence (Q12809 whole entry): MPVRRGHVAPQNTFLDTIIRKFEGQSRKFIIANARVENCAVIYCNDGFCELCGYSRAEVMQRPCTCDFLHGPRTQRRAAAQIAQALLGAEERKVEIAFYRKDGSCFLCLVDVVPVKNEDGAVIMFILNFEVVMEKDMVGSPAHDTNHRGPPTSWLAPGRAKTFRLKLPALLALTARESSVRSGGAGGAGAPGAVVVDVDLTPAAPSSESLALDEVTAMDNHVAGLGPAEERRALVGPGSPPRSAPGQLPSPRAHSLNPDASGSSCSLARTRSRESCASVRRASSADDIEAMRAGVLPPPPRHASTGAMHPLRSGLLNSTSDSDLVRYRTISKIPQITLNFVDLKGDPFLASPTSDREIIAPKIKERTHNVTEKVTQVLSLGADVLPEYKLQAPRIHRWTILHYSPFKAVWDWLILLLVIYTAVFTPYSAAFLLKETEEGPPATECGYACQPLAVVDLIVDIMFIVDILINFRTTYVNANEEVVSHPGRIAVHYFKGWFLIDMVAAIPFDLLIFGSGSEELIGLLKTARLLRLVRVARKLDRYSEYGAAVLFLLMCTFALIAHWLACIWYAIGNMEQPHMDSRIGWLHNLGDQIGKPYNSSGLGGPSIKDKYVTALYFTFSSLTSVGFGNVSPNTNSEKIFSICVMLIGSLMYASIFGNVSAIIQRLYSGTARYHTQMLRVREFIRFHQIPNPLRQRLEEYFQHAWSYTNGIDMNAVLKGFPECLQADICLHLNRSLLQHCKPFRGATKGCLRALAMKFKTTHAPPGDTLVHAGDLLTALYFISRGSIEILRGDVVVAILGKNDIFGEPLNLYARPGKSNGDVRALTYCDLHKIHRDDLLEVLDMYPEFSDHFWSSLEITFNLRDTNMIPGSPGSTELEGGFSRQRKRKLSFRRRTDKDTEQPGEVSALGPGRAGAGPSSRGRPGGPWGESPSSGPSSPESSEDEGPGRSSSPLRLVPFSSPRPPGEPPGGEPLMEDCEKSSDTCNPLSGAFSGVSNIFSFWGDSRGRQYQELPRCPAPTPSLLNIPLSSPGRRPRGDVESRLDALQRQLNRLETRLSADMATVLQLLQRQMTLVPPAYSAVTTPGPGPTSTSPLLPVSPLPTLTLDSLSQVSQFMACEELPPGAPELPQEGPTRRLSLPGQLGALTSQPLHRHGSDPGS

Cytochrome P450 2D6 = Cytochrome P450 2D6 (Homo sapiens, UniProt P10635); assay: Inhibition of CYP2D6; format: ADME
Cytochrome P450 2D6, sequence (P10635 whole entry): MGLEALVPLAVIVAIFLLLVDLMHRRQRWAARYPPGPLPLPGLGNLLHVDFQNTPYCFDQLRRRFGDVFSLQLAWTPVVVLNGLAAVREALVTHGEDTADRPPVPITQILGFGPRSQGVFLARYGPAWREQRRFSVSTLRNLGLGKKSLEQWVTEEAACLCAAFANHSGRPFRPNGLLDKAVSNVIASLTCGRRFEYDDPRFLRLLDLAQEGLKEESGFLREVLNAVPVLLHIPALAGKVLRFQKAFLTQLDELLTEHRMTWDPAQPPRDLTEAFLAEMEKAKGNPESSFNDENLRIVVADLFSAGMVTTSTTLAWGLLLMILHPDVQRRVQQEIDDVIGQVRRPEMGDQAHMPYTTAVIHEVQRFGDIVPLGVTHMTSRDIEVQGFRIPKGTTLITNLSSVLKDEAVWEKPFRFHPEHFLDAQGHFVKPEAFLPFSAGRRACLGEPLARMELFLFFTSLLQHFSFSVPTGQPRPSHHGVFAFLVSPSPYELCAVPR

[3] = Half life in rat plasma at 1 to 3 mg/kg; format: ADME, organism-based; set-up: dose 1-3 mg/kg
[4] = biological target: T1, Sodium channel protein type 9 subunit alpha; assay: Blockade of human Nav1.7 at 1 uM by voltage ion probe reader based FRET assay
Target sequence in this assay (Q15858 whole entry, looked up): as the sequence (Q15858 whole entry) above

[5] = biological target: T1, Sodium channel protein type 9 subunit alpha; assay: Blockade of human Nav1.7 by electrophysiology assay
Target sequence in this assay (Q15858 whole entry): as above

[6] = Clearance in rat plasma at 1 to 3 mg/kg; format: ADME, organism-based; set-up: dose 1-3 mg/kg
[7] = Metabolic stability in dog liver S9 microsomes assessed as compound remaining after 1 hr; format: ADME, Canis lupus familiaris, Microsome; conditions: read-out: INH
[8] = Half life in rat plasma at 1 to 2 mg/kg; format: ADME, organism-based; set-up: dose 1-2 mg/kg
[9] = Metabolic stability in human liver S9 microsomes assessed as compound remaining after 1 hr; format: ADME, Microsome; conditions: read-out: INH
[10] = Metabolic stability in dog hepatocytes assessed as compound remaining after 2 hrs; format: ADME, cell-based, Canis lupus familiaris, Hepatocyte; conditions: read-out: INH
[11] = Oral bioavailability in rat at 1 to 2 mg/kg; format: ADME, organism-based; conditions: in vivo
[12] = Clearance in rat plasma at 1 to 2 mg/kg; format: ADME, organism-based; set-up: dose 1-2 mg/kg
Rattus norvegicus = assay: Analgesic activity rat spinal nerve ligation Chung model assessed as reversal of mechanical allodynia at 10 mg/kg, po administered 14 days after surgery measured 2 hrs after postdose; format: functional
[13] = Metabolic stability in rat liver S9 microsomes assessed as compound remaining after 1 hr; format: ADME, Microsome; conditions: read-out: INH
[14] = biological target: T1, Sodium channel protein type 9 subunit alpha; assay: Binding affinity to human Nav1.7
Target sequence in this assay (Q15858 whole entry): as above

Structure (SMILES): NC(=O)c1nc(-c2cccc(-c3ccccc3OC(F)(F)F)c2)co1
IC50 [1]: 2.36 µM

Structure (SMILES): NC(=O)c1nc(-c2cccc(-c3ccccc3C(F)(F)F)c2)c[nH]1
bioavailability [2]: 46%
IC50 (Cytochrome P450 3A4): > 40 µM
IC50 (Cytochrome P450 2C9): > 40 µM
inhibition at 1 µM (hERG (KCNH2)): 25%
IC50 (Cytochrome P450 2D6): > 40 µM
half-life [3]: 30 min
inhibition [4]: 55%
IC50 [5]: 0.27 µM
clearance [6]: 23 mL/min/kg

Structure (SMILES): Cn1cc(-c2cccc(-c3ccccc3C(F)(F)F)c2)nc1C(N)=O
IC50 [1]: 1.25 µM

Structure (SMILES): CN(C)C(=O)Nc1nc(-c2cccc(-c3ccccc3OC(F)(F)F)c2)cs1
inhibition [4]: 6.6%

Structure (SMILES): FC(F)(F)Oc1ccccc1-c1cccc(-c2c[nH]cn2)c1
inhibition [4]: 14%

Structure (SMILES): Nc1nc(-c2cccc(-c3ccccc3OC(F)(F)F)c2)co1
inhibition [4]: 37%

Structure (SMILES): Cc1sc(C(N)=O)nc1-c1cccc(-c2ccccc2OC(F)(F)F)c1
IC50 [1]: 0.43 µM

Structure (SMILES): CCOC(=O)c1nc(-c2cccc(-c3ccccc3OC(F)(F)F)c2)c(C)s1
inhibition [4]: 8%

Structure (SMILES): FC(F)(F)Oc1ccccc1-c1cccc(-c2cocn2)c1
IC50 [1]: 1.94 µM

Structure (SMILES): CN(C)C(=O)c1nc(-c2cccc(-c3ccccc3OC(F)(F)F)c2)cs1
IC50 [1]: 1.37 µM

Structure (SMILES): Cn1cc(-c2cc(-c3ccccc3OC(F)(F)F)ccc2F)nc1C(N)=O
inhibition [4]: 15%

Structure (SMILES): FC(F)(F)c1ccccc1-c1cccc(-c2cocn2)c1
IC50 [1]: 5.31 µM

Structure (SMILES): Cn1cc(-c2ccc(F)c(-c3ccccc3OC(F)(F)F)c2)nc1C(N)=O
IC50 [1]: 0.49 µM

Structure (SMILES): O=C1NC(=O)/C(=C/c2cccc(-c3ccccc3OC(F)(F)F)c2)S1
Ki [14]: 0.02 µM

Structure (SMILES): NC(=O)c1nc(-c2ccc(-c3ccccc3OC(F)(F)F)cc2)cs1
inhibition [4]: 6.1%

Structure (SMILES): Cc1nc(-c2cccc(-c3ccccc3OC(F)(F)F)c2)co1
IC50 [1]: 2.14 µM

Structure (SMILES): NC(=O)c1nc(-c2cccc(-c3ccccc3C(F)(F)F)c2)c(Cl)[nH]1
IC50 [1]: 2.77 µM

Structure (SMILES): FC(F)(F)c1ccccc1-c1cccc(-c2c[nH]cn2)c1
IC50 (Cytochrome P450 3A4): < 0.05 µM
IC50 (Cytochrome P450 2C9): < 0.05 µM
half-life [8]: 37.8 min
inhibition at 1 µM (hERG (KCNH2)): 75%
IC50 (Cytochrome P450 2D6): < 0.05 µM
bioavailability [11]: 71%
clearance [12]: 32 mL/min/kg
IC50 [5]: 0.15 µM
IC50 [1]: 2.1 µM

Structure (SMILES): NC(=O)N/N=C/c1ccc(Oc2ccc(F)cc2)cc1
Ki [14]: 0.36 µM

Now from value to compound, other results behind:

IC50 [1]: 1.8 µM
Structure (SMILES): OCc1nc(-c2cccc(-c3ccccc3OC(F)(F)F)c2)cs1

IC50 (Cytochrome P450 3A4): 18 µM
IC50 (Cytochrome P450 2C9): 16 µM
remaining at 1 h [7]: 10%
half-life [8]: 79.8 min
remaining at 1 h [9]: 47%
remaining at 2 h [10]: < 5%
IC50 (Cytochrome P450 2D6): 48 µM
bioavailability [11]: 20%
clearance [12]: 52 mL/min/kg
remaining at 1 h [13]: 68%
IC50 [5]: 0.015 µM
IC50 [1]: 230 nM (2×) and 228 nM
Structure (SMILES): NC(=O)c1nc(-c2cccc(-c3ccccc3OC(F)(F)F)c2)cs1
inhibition at 1 µM (hERG (KCNH2)): 0.5%
inhibition in vivo at 10 mg/kg (Rattus norvegicus): 61%

inhibition [4]: 21%
Structure (SMILES): FC(F)(F)Oc1ccccc1-c1cccc(-c2csc(-c3ccccn3)n2)c1

inhibition [4]: 6.3%
Structure (SMILES): FC(F)(F)Oc1ccccc1-c1cccc(-c2csc(-c3ncccn3)n2)c1

bioavailability [2]: 22%
IC50 (Cytochrome P450 3A4): > 50 µM
IC50 (Cytochrome P450 2C9): 8.79 µM
IC50 (Cytochrome P450 2D6): > 50 µM
half-life [3]: 44.4 min
IC50 [5]: 0.05 µM
clearance [6]: 112 mL/min/kg
IC50 [1]: 0.26 µM
Structure (SMILES): NC(=O)c1csc(-c2cccc(-c3ccccc3OC(F)(F)F)c2)n1
inhibition at 1 µM (hERG (KCNH2)): 55%

IC50 [1]: 0.95 µM
Structure (SMILES): FC(F)(F)Oc1ccccc1-c1cccc(-c2csc(-c3ncc[nH]3)n2)c1

inhibition [4]: 27%
Structure (SMILES): FC(F)(F)Oc1ccccc1-c1cccc(-c2csc(-c3ncco3)n2)c1

inhibition [4]: 5%
Structure (SMILES): CC(=O)Nc1nc(-c2cccc(-c3ccccc3OC(F)(F)F)c2)cs1

IC50 [1]: 0.62 µM
Structure (SMILES): NC(=O)Cc1nc(-c2cccc(-c3ccccc3OC(F)(F)F)c2)cs1

IC50 [1]: 2.16 µM
Structure (SMILES): FC(F)(F)Oc1ccccc1-c1cccc(-c2cscn2)c1

inhibition [4]: 84%
Structure (SMILES): Nc1nc(-c2cccc(-c3ccccc3OC(F)(F)F)c2)cs1

IC50 [1]: 1.26 µM
Structure (SMILES): FC(F)(F)Oc1ccccc1-c1cccc(-c2csc(-c3cnccn3)n2)c1

IC50 [1]: 2.99 µM
Structure (SMILES): Cc1nc(-c2cccc(-c3ccccc3OC(F)(F)F)c2)cs1

inhibition [4]: 65%
Structure (SMILES): CS(=O)(=O)Nc1nc(-c2cccc(-c3ccccc3OC(F)(F)F)c2)cs1

inhibition [4]: 8%
Structure (SMILES): N#CCc1nc(-c2cccc(-c3ccccc3OC(F)(F)F)c2)cs1
